pIC50: −log10 of the molar value. Read-outs that look alike come from different tables or passages of the source.
Key:
HCV replicon genotype 1a = experiment: HCV replicon assay, genotype 1a (cell ELISA for NS3/4A); type: cell-based, hepatitis C virus
Protocol: (§1) The HCV NS5B inhibitory activity of the present compounds may be tested using assays known in the art. The HCV NS5B polymerase inhibitors described herein have activities in a genotype 1b replicon assay as described in the Examples. The assay is performed by incubating a replicon harboring cell-line in the presence of inhibitor for a set period of time and measuring the effect of the inhibitor on HCV replicon replication either directly by quantifying replicon RNA level, or indirectly by measuring enzymatic activity of a co-encoded reporter enzyme such as luciferase or β-lactamase. By performing a series of such measurements at different inhibitor concentrations, the effective inhibitory concentration of the inhibitor (EC50 or EC90) is determined. See Jan M. Vrolijk et al., A replicons-based bioassay for the measurement of interferons in patients with chronic hepatitis C, 110 J. VIROLOGICAL METHODS 201 (2003). Such assays may also be run in an automated format for high through-put screening. See Paul Zuck et al., A cell-based β-lactamase reporter gene assay for the identification of inhibitors of hepatitis C virus replication, 334 ANALYTICAL BIOCHEMISTRY 344 (2004).
(§2) Measurement of inhibition by compounds was performed using the HCV replicon system. Several different replicons encoding different HCV genotypes or mutations were used. In addition, potency measurements were made using different formats of the replicon assay, including different ways of measurements and different plating formats. See Jan M. Vrolijk et al., A replicons-based bioassay for the measurement of interferons in patients with chronic hepatitis C, 110 J. VIROLOGICAL METHODS 201 (2003); Steven S. Carroll et al., Inhibition of Hepatitis C Virus RNA Replication by 2′-Modified Nucleoside Analogs, 278(14) J. BIOLOGICAL CHEMISTRY 11979 (2003). However, the underlying principles are common to all of these determinations, and are outlined below.
(§3) Stable neomycin phosphotransferase encoding replicons-harboring cell lines were used, so all cell lines were maintained under G418 selection prior to the assay. Potency was deteremined using a cell ELISA assay with an antibody to the replicons encoded NS3/4a protease. See Caterina Trozzi et al., In Vitro Selection and Characterization of Hepatitis C Virus Serine Protease Variants Resistant to an Active-Site Peptide Inhibitor, 77(6) J. Virol. 3669 (2003). To initiate an assay, replicon cells were plated in the presence of a dilution series of test compound in the absence of G418. Typically, the assays were performed in a 96-well plate formate for manual operation, or a 384-well plate format for automated assay. Replicon cells and compound were incubated for 96 hours. At the end of the assay, cells were washed free of media and compound, and the cells were then lysed. RNA was quantified indirectly through detection of replicon-encoded NS3/4A protein levels, through an ELISA-based assay with an antibody specific for NS3/4A. IC50 determinations were calculated as a percentage of a DMSO control by fitting the data to a four-parameter fit function and the data obtained is provided in the table below.
(§4) Data for selected compounds of the present invention was obtained for genotypes 1a and 1b using this method and is provided in the table below: […]

HCV replicon genotype 1b = experiment: HCV replicon assay, genotype 1b (cell ELISA for NS3/4A); type: cell-based, hepatitis C virus
Protocol: as §1, §2, §3, §4

[1] = Hepatitis C virus, 96 h, read-out: 1a IC50 (nM), HCV genotype 1a replicon cells, 96 hours incubation, NS3/4A ELISA readout, % of DMSO control
[2] = Hepatitis C virus, 96 h, read-out: 1b IC50 (nM), HCV genotype 1b replicon cells, 96 hours incubation, NS3/4A ELISA readout, % of DMSO control

| Compound | IC50 (HCV replicon genotype 1a; [1]) [nM] | IC50 (HCV replicon genotype 1b; [2]) [nM] | other results |
| --- | --- | --- | --- |
| CNC(=O)c1c(-c2ccc(F)cc2)oc2cc(N(C)S(C)(=O)=O)c(C3C[C@@H](c4nc5c(F)cccc5o4)N(C)C3)cc12 (stereo partly drawn) [Example 12, 5-((5S)-5-(4-fluorobenzo[d]oxazol-2-yl)-1-methylpyrrolidin-3-yl)-2-(4-fluorophenyl)-N-methyl-6-(N-methylmethylsulfonamido)benzofuran-3-carboxamide] | 92.8 | 37.8 | – |
| CNC(=O)c1c(-c2ccc(F)cc2)oc2cc(N(C)S(C)(=O)=O)c([C@H]3CCCN(C(=O)c4cc5ccccn5c4)C3)cc12 [Example 106, 2-(4-fluorophenyl)-5-[(3R)-1-(indolizin-2-ylcarbonyl)piperidin-3-yl]-N-methyl-6-[methyl(methylsulfonyl)amino]-1-benzofuran-3-carboxamide] | 123 | 51.5 | – |
| CNC(=O)c1c(-c2ccc(F)cc2)oc2cc(N(C)S(C)(=O)=O)c([C@H]3CCCN(S(=O)(=O)c4ccccc4C)C3)cc12 [Example 128, 2-(4-fluorophenyl)-N-methyl-6-[methyl(methylsulfonyl)amino]-5-{(3R)-1-[(2-methylphenyl)sulfonyl]piperidin-3-yl}-1-benzofuran-3-carboxamide] | 34.2 | 24.2 | – |
| CNC(=O)c1c(-c2ccc(F)cc2)oc2cc(N(C)S(C)(=O)=O)c([C@@H]3CCCN(C(=O)C4C5COCC54)C3)cc12 (stereo in doubt) [Example 59, 2-(4-fluorophenyl)-N-methyl-6-[methyl(methylsulfonyl)amino]-5-[1-(3-oxabicyclo[3.1.0]hex-6-ylcarbonyl)piperidin-3-yl]-1-benzofuran-3-carboxamide] | 308 | 120 | – |
| CNC(=O)c1c(-c2ccc(F)cc2)oc2cc(N(C)S(C)(=O)=O)c([C@@H]3CCCN(C(=O)c4cc5ncccc5[nH]4)C3)cc12 [Example 65, 2-(4-fluorophenyl)-N-methyl-6-[methyl(methylsulfonyl)amino]-5-[1-(1H-pyrrolo[3,2-b]pyridin-2-ylcarbonyl)piperidin-3-yl]-1-benzofuran-3-carboxamide] | 140 | 46.3 | – |
| CNC(=O)c1c(-c2ccc(F)cc2)oc2cc(N(C)S(C)(=O)=O)c(C3CCCN(c4nc5cc(F)ccc5o4)C3)cc12 (stereo not drawn) [Example 51] | – | – | pIC50 (HCV replicon genotype 1a; HCV genotype 1a replicon cells, 96 hours incubation, NS3/4A ELISA readout, % of DMSO control; read-out: 1a IC50): 8.30; pIC50 (HCV replicon genotype 1b; HCV genotype 1b replicon cells, 96 hours incubation, NS3/4A ELISA readout, % of DMSO control; read-out: 1b IC50): 8.15 |
| CNC(=O)c1c(-c2ccc(F)cc2)oc2cc(N(C)S(C)(=O)=O)c([C@H]3CCCN(S(=O)(=O)c4cc5cccc(F)c5[nH]4)C3)cc12 [Example 3, (R)-5-(1-((7-fluoro-1H-indol-2-yl)sulfonyl)piperidin-3-yl)-2-(4-fluorophenyl)-N-methyl-6-(N-methylmethylsulfonamido)benzofuran-3-carboxamide] | 148 | 109 | – |
| CNC(=O)c1c(-c2ccc(F)cc2)oc2cc(N(C)S(C)(=O)=O)c([C@H]3CCCN(C(=O)c4cc5c(F)cccc5[nH]4)C3)cc12 [Example 88, 5-{(3R)-1-[(4-fluoro-1H-indol-2-yl)carbonyl]piperidin-3-yl}-2-(4-fluorophenyl)-N-methyl-6-[methyl(methylsulfonyl)amino]-1-benzofuran-3-carboxamide] | 70.7 | 38.7 | – |
| CNC(=O)c1c(-c2ccc(F)cc2)oc2cc(N(C)S(C)(=O)=O)c([C@H]3CCCN(S(=O)(=O)C4CCCCC4)C3)cc12 [Example 132, 5-[(3R)-1-(cyclohexylsulfonyl)piperidin-3-yl]-2-(4-fluorophenyl)-N-methyl-6-[methyl(methylsulfonyl)amino]-1-benzofuran-3-carboxamide] | 93.3 | 56.1 | – |
| CNC(=O)c1c(-c2ccc(F)cc2)oc2cc(N(C)S(C)(=O)=O)c([C@H]3CCCN(S(=O)(=O)Cc4cccnc4)C3)cc12 [Example 140, 2-(4-fluorophenyl)-N-methyl-6-[methyl(methylsulfonyl)amino]-5-{(3R)-1-[(pyridin-3-ylmethyl)sulfonyl]piperidin-3-yl}-1-benzofuran-3-carboxamide] | 20.5 | 16.5 | – |
| CNC(=O)c1c(-c2ccc(F)cc2)oc2cc(N(C)S(C)(=O)=O)c(C3CNCC(c4cc5c(F)cccc5[nH]4)N3)cc12 (stereo not drawn) [Example 13, 5-(6-(4-fluoro-1H-indol-2-yl)piperazin-2-yl)-2-(4-fluorophenyl)-N-methyl-6-(N-methylmethylsulfonamido)benzofuran-3-carboxamide] | 140 | 165 | – |
| CNC(=O)c1c(-c2ccc(F)cc2)oc2cc(N(C)S(C)(=O)=O)c([C@H]3CN(C(=O)c4cc5cccc(F)c5[nH]4)CCO3)cc12 (single isomer, unassigned) [Example 7, 5-(4-(7-fluoro-1H-indole-2-carbonyl)morpholin-2-yl)-2-(4-fluorophenyl)-N-methyl-6-(N-methylmethylsulfonamido)benzofuran-3-carboxamide] | – | – | pIC50 (HCV replicon genotype 1a; read-out: 1a IC50; HCV genotype 1a replicon cells, 96 hours incubation, NS3/4A ELISA readout, % of DMSO control): 8.24; pIC50 (HCV replicon genotype 1b; read-out: 1b IC50; HCV genotype 1b replicon cells, 96 hours incubation, NS3/4A ELISA readout, % of DMSO control): 7.94 |
| CNC(=O)c1c(-c2ccc(F)cc2)oc2cc(N(C)S(C)(=O)=O)c([C@H]3CCCN(C(=O)c4ccn5nncc5c4)C3)cc12 [Example 105, 2-(4-fluorophenyl)-N-methyl-6-[methyl(methylsulfonyl)amino]-5-[(3R)-1-([1,2,3]triazolo[1,5-a]pyridin-5-ylcarbonyl)piperidin-3-yl]-1-benzofuran-3-carboxamide] | 347 | 219 | – |
| CNC(=O)c1c(-c2ccc(F)cc2)oc2cc(N(C)S(C)(=O)=O)c([C@H]3CCCN(C(=O)c4cc5cccc(F)c5o4)C3)cc12 [Example 91, (R)-5-(1-(7-fluorobenzofuran-2-carbonyl)piperidin-3-yl)-2-(4-fluorophenyl)-N-methyl-6-(N-methylmethylsulfonamido)benzofuran-3-carboxamide] | 180 | 62.6 | – |
| CNC(=O)c1c(-c2ccc(F)cc2)oc2cc(N(C)S(C)(=O)=O)c([C@H]3CCCN(C(=O)C(c4ccccc4)c4ccccc4)C3)cc12 [Example 108, 5-[(3R)-1-(diphenylacetyl)piperidin-3-yl]-2-(4-fluorophenyl)-N-methyl-6-[methyl(methylsulfonyl)amino]-1-benzofuran-3-carboxamide] | 266 | 53 | – |
| CNC(=O)c1c(-c2ccc(F)cc2)oc2cc(N(C)S(C)(=O)=O)c([C@H]3CCCN(S(=O)(=O)c4ccccc4F)C3)cc12 [Example 136, 2-(4-fluorophenyl)-5-{(3R)-1-[(2-fluorophenyl)sulfonyl]piperidin-3-yl}-N-methyl-6-[methyl(methylsulfonyl)amino]-1-benzofuran-3-carboxamide] | 58.5 | 40.5 | – |
| CNC(=O)c1c(-c2ccc(F)cc2)oc2cc(N(C)S(C)(=O)=O)c([C@H]3CCCN(C(=O)c4nc5ncccc5[nH]4)C3)cc12 [Example 36, (R)-5-(1-(1H-imidazo[4,5-b]pyridine-2-carbonyl)piperidin-3-yl)-2-(4-fluorophenyl)-N-methyl-6-(N-methylmethylsulfonamido)benzofuran-3-carboxamide] | 269 | 286 | – |
| CNC(=O)c1c(-c2ccc(F)cc2)oc2cc(N(C)S(C)(=O)=O)c([C@@H]3CCCN(c4nc5ccccc5n4C)C3)cc12 (single isomer, unassigned) [Example 43, 2-(4-fluorophenyl)-N-methyl-5-(1-(1-methyl-1H-benzo[d]imidazol-2-yl)piperidin-3-yl)-6-(N-methylmethylsulfonamido)benzofuran-3-carboxamide] | 41.2 | 93 | – |
